A short description of one series: in vivo. The note with it: mouse, iv.
The subject of a further series is mice. Particulars: for toxicity, in words: conclusion from Table II.
The next series deals with T1, β2 -receptors (Felis catus, UniProt Q9TST5).
T1 construct: The test animals were adult cats of either sex; from tissue; host or cells: hind quarter vasculature of anaesthetized cat, in vivo
As to the kind of experiment: β2-adrenoreceptor blockade: antagonism of isoprenaline-induced reduction in tone in the peripheral vasculature (hind quarter perfusion pressure) in anaesthetized cats. The note with it: cat, read-out: Approximate ED50 value for β2 -receptor blockade. In kind it is in vivo. An excerpt: (§1) The examinations thus comprise selective effect against isoprenaline-induced changes in heart rate, which are presumed to be elicited by stimulation of β1 -receptors; and against the reduction in tone in the peripheral vasculature induced by the said agonist is presumed to be due to stimulation of β2 -receptors.
(§2) The test animals were adult cats of either sex.
(§3) The heart rate was derived electronically from the blood pressure in the right carotid artery, and the reduction in tone in the peripheral vasculature was determined by recording changes in hind quarter vascular resistance.
(§4) Each cat was dosed repeatedly at 15 minutes' intervals throughout the experiment with 1 μg isoprenaline as the hydrochloride, the dose of this and the other standard drugs being stated in terms of the base. When constant responses of both heart rate and hind quarter perfusion pressure were obtained, a dose of 4 μg/kg of one of the test compounds was administered intraveneously 2 minutes before the isoprenaline dose. This initial dose of the test compound was administered again 15 minutes later. Thereafter, the test compound was administered at 15 minutes' intervals, each successive dose being twice the preceeding dose, the injection always being given two minutes prior to the next isoprenaline dose. […] In this way, cumulative dose-response curves for the effects of each test compound could be calculated and approximately ED50 values obtained.

Series [1] deals with β1 -receptors. As to the kind of experiment: β1-adrenoreceptor blockade: antagonism of isoprenaline-induced changes in heart rate in anaesthetized cats. In kind it is in vivo. Particulars: for ratio between these two activities (ED50 β2 / ED50 β1): anaesthetized cats, intravenous, Table I; for selectivity for β1 -receptors versus β2 -receptors, in words: conclusion from Table I.
From the text: as §1, §2, §3, §4

Series [2] has as its target T2, β1 -receptors (Felis catus, UniProt Q9TST6).
T2 construct: The test animals were adult cats of either sex; from tissue; host or cells: heart of anaesthetized cat, in vivo
The description is as above. It is filed as in vivo. The note with it: for ED50: cat, read-out: Approximate ED50 value for β1 -receptor blockade; for potency as antagonist of the β1 -receptors relative to propranolol: compared with propranolol, Table I; for activity as antagonist of the β1 -receptors, in words: conclusion from Table I.
From the text: as §1, §2, §3, §4

In series [3] the test system is β1 -receptors and β2 -receptors. The note with it: background; cited from earlier work.
The mark [4] stands for this setting: anaesthetized cats, intravenous, cumulative doses, isoprenaline-induced change in hind quarter perfusion pressure.
Setting [5] is: anaesthetized cats, intravenous, cumulative doses, isoprenaline-induced change in heart rate.

We go through 6 molecules from patent US4065461A, “Amino containing pyridyloxy propanols” (Aktieselskabet Grindstedvaerket, priority 1975, dated 1977).

Molecules are shown by their SMILES. Like-named read-outs stand apart in the source and are kept apart here. Bounds are passed on as bounds.

In general, LD50 refers to the dose expected to kill half of the subjects tested. Low values mean a more toxic substance, high ones a less toxic substance. Usually ED50 stands for the midpoint of the dose-response relation.

T2 sequence (Q9TST6 whole entry): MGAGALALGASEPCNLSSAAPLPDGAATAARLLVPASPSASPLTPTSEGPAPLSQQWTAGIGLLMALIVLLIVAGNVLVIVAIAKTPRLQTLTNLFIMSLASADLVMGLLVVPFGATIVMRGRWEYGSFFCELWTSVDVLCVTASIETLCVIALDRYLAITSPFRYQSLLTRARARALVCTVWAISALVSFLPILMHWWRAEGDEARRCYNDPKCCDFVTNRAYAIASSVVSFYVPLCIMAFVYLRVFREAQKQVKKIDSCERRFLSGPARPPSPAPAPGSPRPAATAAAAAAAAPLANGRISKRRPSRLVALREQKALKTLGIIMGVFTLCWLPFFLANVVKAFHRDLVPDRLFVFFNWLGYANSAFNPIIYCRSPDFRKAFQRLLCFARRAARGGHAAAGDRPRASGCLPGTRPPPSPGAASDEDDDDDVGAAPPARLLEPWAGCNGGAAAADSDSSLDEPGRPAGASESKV
T1 sequence (Q9TST5 whole entry): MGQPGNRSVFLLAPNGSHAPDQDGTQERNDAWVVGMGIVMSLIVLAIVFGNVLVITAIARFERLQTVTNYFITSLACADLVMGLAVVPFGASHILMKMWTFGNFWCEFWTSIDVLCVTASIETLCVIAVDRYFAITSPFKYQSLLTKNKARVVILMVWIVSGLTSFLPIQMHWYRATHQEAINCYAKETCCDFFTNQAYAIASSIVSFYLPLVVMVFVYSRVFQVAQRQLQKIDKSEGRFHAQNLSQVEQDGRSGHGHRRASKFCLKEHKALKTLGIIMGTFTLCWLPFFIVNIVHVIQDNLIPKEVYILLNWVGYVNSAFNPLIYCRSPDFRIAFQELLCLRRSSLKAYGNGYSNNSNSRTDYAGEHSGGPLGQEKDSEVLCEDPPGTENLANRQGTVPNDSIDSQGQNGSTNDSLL

`CC(C)NCC(O)COc1cccnc1N` (centres unmarked) [Compound 2, 1-Isopropylamino-3-[(2-amino-3-pyridyl)oxy]-2-propanol]: the LD50 is 203 mg/kg in “in vivo” and 192.0 mg/kg with mice (mouse, in vivo, iv). Also, in the series on mice (intravenous, mice), the “toxicity, in words” value is “somewhat less toxic”. Further, the values for the ED50 on β2 -receptors (setting [4]) and at β1 -receptors [2] (setting [5]) were 3.5 mg/kg and 0.08 mg/kg, respectively. Moreover, the “ratio between these two activities (ED50 β2 / ED50 β1)” value with β1 -receptors [1] was found to be 43.8. The “selectivity for β1 -receptors versus β2 -receptors, in words” value (from here on “selectivity for β1 -receptors versus β2”) in the series with β1 -receptors [1] is on record as “high degree of selectivity”. Besides, the “potency as antagonist of the β1 -receptors relative to propranolol” value (“potency … -receptors relative to propranolol” below) at β1 -receptors [2] is reported as “approximately equal to”.

As to `CC(C)NCC(O)COc1cccnc1Cl` (centres unmarked) [Compound 6], the LD50 in the series “in vivo” worked out at 165 mg/kg; in the series with mice (mice, female, intravenous), 180.2 mg/kg. Also, the values for the ED50 at β2 -receptors (iv) and on β1 -receptors [2] (iv) were 1.35 mg/kg and 0.03 mg/kg, respectively. Moreover, the “ratio between these two activities (ED50 β2 / ED50 β1)” value in the series with β1 -receptors [1] amounted to 45.0.

Turning to `Cc1ccc(OCC(O)CNC(C)C)cn1` (centres unmarked) [Compound 5], the LD50 in “in vivo” was 285 mg/kg; with mice (mice, female, intravenous), 239.4 mg/kg. Besides, the figures for the ED50 at β2 -receptors (iv) and on β1 -receptors [2] (iv) were more than 4.1 mg/kg and 0.7 mg/kg, respectively. For the same molecule, in the series with β1 -receptors [1], the “ratio between these two activities (ED50 β2 / ED50 β1)” value is on record as more than 5.8. Besides, the “selectivity for β1 -receptors versus β2” value in the series on β1 -receptors [1] was “rather low degree of selectivity”. Also, the “activity as antagonist of the β1 -receptors, in words” value on β1 -receptors [2] was “not very active”.

As for `CC(C)NCC(O)COc1cccc2ccccc12` (centres unmarked) [Compound 4, 1-(isopropylamino)-3-(1-naphthyloxy)-2-propanol], the “receptor blocking profile, in words” value in series [3] is given as “act more or less indiscriminately on both types of β-receptors”.

In the case of `CC(C)NCC(O)COc1cccnc1` (centres unmarked) [Compound 1, 1-Isopropylamino-3-(3-pyridyloxy)-2-propanol], the LD50 stood at 261 mg/kg in “in vivo” and 285.2 mg/kg in the series on mice (mice, female, intravenous). The “toxicity, in words” value in the series with mice (intravenous, mice) is “low toxicity”. Further, the ED50 on β2 -receptors (iv) was 1.45 mg/kg; at β1 -receptors [2] (iv), 0.007 mg/kg. The “ratio between these two activities (ED50 β2 / ED50 β1)” value with β1 -receptors [1] is recorded as 207.1. Further, the “selectivity for β1 -receptors versus β2” value in the series on β1 -receptors [1] is given as “outstanding selectivity as β1 -adrenoblocking agent”. Besides, the “potency … -receptors relative to propranolol” value at β1 -receptors [2] is on record as “greater than”. In addition, the “activity as antagonist of the β1 -receptors, in words” value on β1 -receptors [2] was “extremely active”.

Turning to `CC(=O)Nc1ccc(OCC(O)CNC(C)C)cc1` (centres unmarked) [Compound 3, practolol], the LD50 in the series “in vivo” is 41.6 mg/kg; with mice (mouse, in vivo, iv) it was 31.6 mg/kg. For the same molecule, the ED50 on β2 -receptors (setting [4]) worked out at 10.4 mg/kg; at β1 -receptors [2] (setting [5]), 0.36 mg/kg. The “receptor blocking profile, in words” value in series [3] was “substantial blocking activity on the β1 -receptors and not on the β2 -receptors”. Also, in the series on β1 -receptors [1], the “ratio between these two activities (ED50 β2 / ED50 β1)” value was determined as 28.9. Moreover, the “selectivity for β1 -receptors versus β2” value in the series on β1 -receptors [1] is “approximately thirty times more selectivity against the β1 -receptors than against β2 -receptors”. For the same molecule, at β1 -receptors [2], the “potency … -receptors relative to propranolol” value was “much less active than propranolol”.
